Measured values: patent US8404239B2, “Anti-Notch2 NRR antibodies” (Genentech, Inc., priority 2008, dated 2013)

Tests used:
HUVECs = assay: HUVEC fibrin gel bead endothelial cell sprouting assay; assay type: cell-based, human; settings: HUVEC co-cultured with skin fibroblasts; 1 μM DBZ, 5 μg/ml antibodies
Procedure: (A) In vitro endothelial cell sprouting assay. HUVECs were coated on Cytodex beads and co-cultured with skin fibroblasts. Cultures were either mock treated (control) or treated with 1 μM of DBZ, 5 μg/ml of α-NRR1 or 5 μg/ml of α-D114. Bar=100 μm. (B) Sprout length measurements from the cultures in (A). (C) Mouse neonate retinal assay for endothelial cell sprouting and angiogenesis. Mouse neonates were injected at P1 and P3 with the indicated antibodies, and retinas were prepared at P5 to visualize perfusion of isolectin or the Ki67 marker for proliferation. Panels I and II, Bar=1 mm. Panels III-VI represent enlargements of part of panels I and II, bar=0.2 mm.
HUVEC cells were grown on fibrin gel beads as previously described (Nakatsu et al., 2003). Cytodex 3 beads (Amersham Pharmacia Biotech) were coated with 350-400 HUVECs per bead in 2 ml EGM-2 medium (Clonetics). About 200 HUVEC coated beads were imbedded in fibrin clot in one well of 12-well tissue culture plate. […] Medium was changed every two days. After seven to nine days, fibrin gels were then fixed with 4% paraformaldehyde and endothelial cells were stained with anti-CD31 (R&D Systems AF806) using a FITC-conjugated secondary antibody for detection.

[1] = tested on: intestinal cell differentiation; assay: Histology and immunohistochemistry of mouse intestine tissue; assay type: in vivo
Text: (A) Total body weight change (mean+/−standard deviation) vs. time. […] Arrows mark the days of dosing. (B) Immunohistochemical analyses of small intestines. […] In each row as indicated, staining is shown for haemotoxylin and eosin (H & E), Alcian Blue for mucin and to mark secretory goblet cells, lysozyme to mark Paneth cells, Ki-67 for proliferation and Hes1 as a Notch downstream target. See FIGS. 19 and 20 for analyses of the large intestine at day 7 and of the small intestine at day 2, respectively. Bar=40 μm. (C) Comparison of Notch1- versus Notch2-specific inhibition on small intestinal cell differentiation. Small intestines from the study described in (A) were prepared for Alcian Blue and Ki-67 one day after the final dosing with α-gD, α-NRR1 or α-NRR2, as indicated. Bar=50 μm.
Formalin-fixed and paraffin-embedded mouse small intestine tissues were sectioned at 3 micron thickness. Histochemical identification of intestinal cell types was performed with Alcian blue as recommended by the manufacturer (PolyScientific). For anti-Ki67 staining, sections were pretreated with Target Retrieval Solution (S1700, DAKO), and incubated with rabbit anti-Ki67 (1:200, clone SP6, Neomarkers). Secondary goat anti-rabbit at 7.5 μg/ml (Vector labs) was detected with the Vectastain ABC Elite Kit (Vector labs). Ki67 stained sections were counterstained with Mayer's haemotoxylin. For anti-lysozyme staining, sections were processed on the Discovery XT platform (Ventana Medical Systems, Inc.) using CC1m epitope recovery conditions, OmniMap-rabbit detection and Ventana haemotoxylin II/with bluing counterstain. For HES-1 staining, anti-rat HES-1 (clone NM1, MBL, International) was followed by TSA-HRP.
The effect of inhibiting both Notch1 and Notch2 on intestinal cell fate determination was also investigated. […] The intestines were harvested and stained with H&E to reveal the crypt morphology. […] Further experimentation confirmed this observation.

Notch2 signaling = assay: Co-culture Notch reporter assay, Notch2 signaling (U87MG cells + Jag1 cells); assay type: cell-based; settings: Jag1-induced; DAPT 5 μM
Procedure: (§1) NIH-3T3 cells stably transfected with Jag1 were used to induce Notch signaling in NIH-3T3 cells stably transfected with Notch1 (except for “−Jag1”, which used untransfected NIH-3T3 cells in place of the Jag1-expressing cells). […] NIH-3T3 cells stably transfected with Jag1 were used to induce Notch signaling in U87MG cells, which express high levels of Notch2. The assay was performed as described in (A). […] The assay was performed as in (A) except that the receptor-expressing cells were generated by transient transfection of plasmids expressing the indicated Notch1 receptors.
Co-culture assay in U87MG cells, as described in FIG. 10B.
(§2) NIH-3T3 cells either stably transfected with Notch 1 or transiently transfected with plasmids containing other Notch receptors were co-transfected with a Notch-responsive TP-1 (12× CSL) Firefly luciferase reporter and a constitutively active Renilla Luciferase reporter (pRL-CMV, Promega) to control for transfection efficiency. Cells are allowed to recover from the transfection from 6 hours to overnight. Treatments of antibodies and NIH-3T3 cells stably transfected with ligand are used to stimulate the receptor cells. After 20 hours, firefly and Renilla luciferase are measured with Dual Glo Luciferase Assay system (Promega). Eight replicates were analyzed for each condition by dividing the Firefly signal by the Renilla signal to control for transfection efficiency. The mean and standard deviation were calculated and values were normalized to calculated values for co-culture stimulated with NIH-3T3 cells without ligand transfected.

Notch1 signaling = assay: Co-culture Notch reporter assay, Notch1 signaling (NIH-3T3 Notch1 cells + ligand cells); assay type: cell-based; settings: Jag1-induced; α-gD 2000 ng/ml; DAPT 5 μM
Procedure: as §1
as §2, with “Cells are allowed to recover from the transfection from 6 hours to overnight. Treatments of antibodies and NIH-3T3 cells stably transfected with ligand are used to stimulate the receptor cells.” left out

SK23 melanoma cells = assay: Cell Titer Glo viability of melanoma cell line SK23; assay type: cell-based, human; settings: six days, antibodies 20 mg/ml, DAPT 5 μM, ± Jagged-1
Procedure: (§3) Human melanoma cell lines SK23 and LOX-IMVI were plated in medium containing 2% FBS at low density (4000 cells/well for SK23, 2500 cells/well for LOX-IMVI) in 96 well plates that were coated without (−jag-1) or with Jagged-1 ligand (+jag-1) (R&D Systems, Minneapolis, Minn.). […] An equal volume of DMSO served as the vehicle control, whereas an equal concentration of anti-gD HuB6 phage antibody served as the isotype control antibody. Cell Titer Glo assays (Promega, Madison, Wis.) were performed six days after plating. […] In FIGS. 25A and 25B, cell viability (y-axis) is expressed relative to the values from the DMSO vehicle, −jag-1 control wells.

LOX-IMVI melanoma cells = assay: Cell Titer Glo viability of melanoma cell line LOX-IMVI; assay type: cell-based, human; settings: six days, antibodies 20 mg/ml, DAPT 5 μM, ± Jagged-1
Procedure: as §3

SMILES	endothelial cell sprouts (number and length) (HUVECs)	Notch signaling (Hes1 staining), large intestine ([1]; day 7)	goblet cell numbers (Alcian Blue and H&E), large intestine ([1]; day 7)	progenitor cell proliferation (Ki-67), large intestine ([1]; day 7)	Hes1 expression, small intestine ([1]; day 7, DBZ 30 μmol/kg)	Paneth cells (lysozyme staining), small intestine ([1]; day 7, DBZ 30 μmol/kg)	goblet cell population (Alcian Blue), small intestine ([1]; day 7, DBZ 30 μmol/kg)	progenitor cell proliferation (Ki-67), small intestine ([1]; day 7, DBZ 30 μmol/kg)	intestinal cell fate changes at early time point ([1]; small intestine, day 2)	effect on Notch2 reporter signaling (Notch2 signaling)	effect on Notch1 reporter signaling (Notch1 signaling)	cell viability (SK23 melanoma cells)	cell viability (LOX-IMVI melanoma cells)
C[C@H](NC(=O)Cc1cc(F)cc(F)c1)C(=O)N[C@@H]1C(=O)N(C)c2ccccc2-c2ccccc21 [DBZ]	increased both the number and length	significantly reduced Notch signaling	increased goblet cell numbers	blocked progenitor cell proliferation	inhibition of Hes1 expression	increased the numbers and/or activity of Paneth cells	dramatic expansion	decrease in progenitor cell proliferation	only weakly detectable				
C[C@H](NC(=O)Cc1cc(F)cc(F)c1)C(=O)N[C@H](C(=O)OC(C)(C)C)c1ccccc1 [DAPT, reference compound]										reduced to background	reduced to background	decrease in viability	decrease in viability
